Source: PubChem BioAssay (NCI)
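Abbreviation: GI50, concentration required for 50% inhibition of growth. TGI: total growth inhibition.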

What was measured:
Assay in all cases: NCI anticancer screen, dose series, 384-well format
HS 578T breast = test system: HS 578T breast
KM12 colon = test system: KM12 colon
CCRF-CEM leukemia = test system: CCRF-CEM leukemia
SW-620 colon = test system: SW-620 colon
EKVX NSCLC = test system: EKVX NSCLC
SK-MEL-28 melanoma = test system: SK-MEL-28 melanoma
SNB-75 CNS = test system: SNB-75 CNS
A549 NSCLC = test system: A549 NSCLC
NCI-H322M lung = test system: NCI-H322M lung
BT-549 breast = test system: BT-549 breast
UACC-62 melanoma = test system: UACC-62 melanoma
NCI-H226 lung = test system: NCI-H226 lung
HL-60(TB) leukemia = test system: HL-60(TB) leukemia
SF-295 CNS = test system: SF-295 CNS
OVCAR-3 ovarian = test system: OVCAR-3 ovarian
MOLT-4 leukemia = test system: MOLT-4 leukemia
SN12C renal = test system: SN12C renal
OVCAR-4 ovarian = test system: OVCAR-4 ovarian
U251 glioblastoma = test system: U251 glioblastoma
SF-268 CNS = test system: SF-268 CNS
RXF 393 renal = test system: RXF 393 renal
HT29 colon = test system: HT29 colon
A498 renal = test system: A498 renal
HCC-2998 colon = test system: HCC-2998 colon
HOP-62 NSCLC = test system: HOP-62 NSCLC
SF-539 CNS = test system: SF-539 CNS
IGROV1 ovarian = test system: IGROV1 ovarian
NCI-H522 lung = test system: NCI-H522 lung
T-47D breast = test system: T-47D breast
UO-31 renal = test system: UO-31 renal
NCI-H460 NSCLC = test system: NCI-H460 NSCLC
UACC-257 melanoma = test system: UACC-257 melanoma
CAKI-1 renal = test system: CAKI-1 renal
HCT-15 colon = test system: HCT-15 colon
MALME-3M melanoma = test system: MALME-3M melanoma
LOX IMVI melanoma = test system: LOX IMVI melanoma
ACHN renal = test system: ACHN renal
COLO 205 colon = test system: COLO 205 colon
HOP-92 NSCLC = test system: HOP-92 NSCLC
SK-OV-3 ovarian = test system: SK-OV-3 ovarian
MCF7 breast = test system: MCF7 breast
RPMI-8226 leukemia = test system: RPMI-8226 leukemia
MDA-MB-231 breast = test system: MDA-MB-231 breast
DU-145 prostate = test system: DU-145 prostate
K-562 leukemia = test system: K-562 leukemia
NCI/ADR-RES ovarian = test system: NCI/ADR-RES ovarian
TK-10 renal = test system: TK-10 renal
M14 melanoma = test system: M14 melanoma
786-0 renal = test system: 786-0 renal
PC-3 prostate = test system: PC-3 prostate
OVCAR-8 ovarian = test system: OVCAR-8 ovarian
NCI-H23 lung = test system: NCI-H23 lung
SK-MEL-5 melanoma = test system: SK-MEL-5 melanoma
MDA-MB-435 melanoma = test system: MDA-MB-435 melanoma
MDA-MB-468 breast = test system: MDA-MB-468 breast
HCT-116 colon = test system: HCT-116 colon
SNB-19 CNS = test system: SNB-19 CNS

SMILES: NC(=O)/C(=C/n1cnc(-c2cc(C(F)(F)F)cc(C(F)(F)F)c2)n1)c1cncnc1
- GI50 (HS 578T breast): 33 nM
- TGI (HS 578T breast): 244 nM
- GI50 (KM12 colon): 191 nM
- TGI (KM12 colon): 1930 nM
- GI50 (CCRF-CEM leukemia): 47.4 nM
- TGI (CCRF-CEM leukemia): 188 nM
- GI50 (SW-620 colon): 41 nM
- TGI (SW-620 colon): 1410 nM
- GI50 (EKVX NSCLC): 591 nM
- TGI (EKVX NSCLC): 4140 nM
- GI50 (SK-MEL-28 melanoma): 106 nM
- TGI (SK-MEL-28 melanoma): 372 nM
- GI50 (SNB-75 CNS): 15.4 nM
- TGI (SNB-75 CNS): 41.9 nM
- GI50 (A549 NSCLC): 196 nM
- TGI (A549 NSCLC): 1640 nM
- GI50 (NCI-H322M lung): 297 nM
- TGI (NCI-H322M lung): 2900 nM
- GI50 (BT-549 breast): 12.1 nM
- TGI (BT-549 breast): 45.5 nM
- GI50 (UACC-62 melanoma): 57.2 nM
- TGI (UACC-62 melanoma): 241 nM
- GI50 (NCI-H226 lung): 31.6 nM
- TGI (NCI-H226 lung): 400 nM
- GI50 (HL-60(TB) leukemia): 15.3 nM
- TGI (HL-60(TB) leukemia): 131 nM
- GI50 (SF-295 CNS): 327 nM
- TGI (SF-295 CNS): 2690 nM
- GI50 (OVCAR-3 ovarian): 28 nM
- TGI (OVCAR-3 ovarian): 171 nM
- GI50 (MOLT-4 leukemia): 14.5 nM
- TGI (MOLT-4 leukemia): 28.2 nM
- GI50 (SN12C renal): 598 nM
- TGI (SN12C renal): 2260 nM
- GI50 (OVCAR-4 ovarian): 249 nM
- TGI (OVCAR-4 ovarian): 780 nM
- GI50 (U251 glioblastoma): 120 nM
- TGI (U251 glioblastoma): 785 nM
- GI50 (SF-268 CNS): 26.7 nM
- TGI (SF-268 CNS): 95.3 nM
- GI50 (RXF 393 renal): 24.4 nM
- TGI (RXF 393 renal): 116 nM
- GI50 (HT29 colon): 65.6 nM
- TGI (HT29 colon): 943 nM
- GI50 (A498 renal): 42 nM
- TGI (A498 renal): 232 nM
- GI50 (HCC-2998 colon): 60.5 nM
- TGI (HCC-2998 colon): 287 nM
- GI50 (HOP-62 NSCLC): 229 nM
- TGI (HOP-62 NSCLC): 995 nM
- GI50 (SF-539 CNS): 27.5 nM
- TGI (SF-539 CNS): 84 nM
- GI50 (IGROV1 ovarian): 296 nM
- TGI (IGROV1 ovarian): 2130 nM
- GI50 (NCI-H522 lung): 24.9 nM
- TGI (NCI-H522 lung): 184 nM
- GI50 (T-47D breast): 192 nM
- TGI (T-47D breast): 1580 nM
- GI50 (UO-31 renal): 269 nM
- TGI (UO-31 renal): 1570 nM
- GI50 (NCI-H460 NSCLC): 29.6 nM
- TGI (NCI-H460 NSCLC): 131 nM
- GI50 (UACC-257 melanoma): 591 nM
- TGI (UACC-257 melanoma): 2120 nM
- GI50 (CAKI-1 renal): 22 nM
- TGI (CAKI-1 renal): 1340 nM
- GI50 (HCT-15 colon): 92.7 nM
- TGI (HCT-15 colon): 1180 nM
- GI50 (MALME-3M melanoma): 32.2 nM
- TGI (MALME-3M melanoma): 483 nM
- GI50 (LOX IMVI melanoma): 144 nM
- TGI (LOX IMVI melanoma): 687 nM
- GI50 (ACHN renal): 329 nM
- TGI (ACHN renal): 2670 nM
- GI50 (COLO 205 colon): 44.1 nM
- TGI (COLO 205 colon): 1740 nM
- GI50 (HOP-92 NSCLC): 438 nM
- TGI (HOP-92 NSCLC): 2060 nM
- GI50 (SK-OV-3 ovarian): 92.2 nM
- TGI (SK-OV-3 ovarian): 8970 nM
- GI50 (MCF7 breast): 47.8 nM
- TGI (MCF7 breast): 10900 nM
- TGI (RPMI-8226 leukemia): 24.1 nM
- GI50 (MDA-MB-231 breast): 29.5 nM
- TGI (MDA-MB-231 breast): 253 nM
- GI50 (DU-145 prostate): 235 nM
- TGI (DU-145 prostate): 3940 nM
- GI50 (K-562 leukemia): 37.2 nM
- TGI (K-562 leukemia): 1030 nM
- GI50 (NCI/ADR-RES ovarian): 222 nM
- TGI (NCI/ADR-RES ovarian): 1680 nM
- GI50 (TK-10 renal): 47.5 nM
- TGI (TK-10 renal): 1350 nM
- GI50 (M14 melanoma): 146 nM
- TGI (M14 melanoma): 485 nM
- GI50 ([…]-0 renal): 50.4 nM
- TGI (786-0 renal): 1220 nM
- GI50 (PC-3 prostate): 26.1 nM
- TGI (PC-3 prostate): 110 nM
- GI50 (OVCAR-8 ovarian): 37.8 nM
- TGI (OVCAR-8 ovarian): 1050 nM
- GI50 (NCI-H23 lung): 71.3 nM
- TGI (NCI-H23 lung): 1120 nM
- GI50 (SK-MEL-5 melanoma): 192 nM
- TGI (SK-MEL-5 melanoma): 1190 nM
- GI50 (MDA-MB-435 melanoma): 40.9 nM
- TGI (MDA-MB-435 melanoma): 170 nM
- GI50 (MDA-MB-468 breast): 73 nM
- TGI (MDA-MB-468 breast): 247 nM
- GI50 (HCT-116 colon): 40.1 nM
- TGI (HCT-116 colon): 232 nM
- GI50 (SNB-19 CNS): 188 nM
- TGI (SNB-19 CNS): 1880 nM
